From patent publication US5994569A, “Dihomo-seco-cholestanes” (Hoffmann-La Roche Inc., priority 1997, dated 1999)
Like-named read-outs stand apart in the source and are kept apart here.

Tested on: IL-12 production
Assay: In vitro Assay for IL-12 Inhibition (IL-12 production by THP-1 cells or human peripheral whole blood, ELISA)
Format: cell-based
Details: read-out: IC50 values for the inhibition of IL-12 production
[1] = THP-1 cells stimulated with SAC and huIFN-γ (1000 U/ml), or alternatively human peripheral whole blood primed with huIFN-γ then SAC, supernatants after 48 hours, IL-12 by ELISA

SMILES	IC50 [1] [µM]	IC50 (Homo sapiens, THP-1, 48 h) [µM]
C=C1/C(=C\C=C2/CCC[C@]3(C)[C@@H]([C@H](C)CCCC(C)(C)O)CC[C@@H]23)C[C@@H](O)C[C@@H]1O [Calcitriol, reference compound]		0.06
C=C1/C(=C\C=C2/CCC[C@]3(C)[C@@H]([C@H](C)C/C=C/C=C/C(C)(C)O)CC[C@@H]23)C[C@H](O)C[C@@H]1O [Example 3, (5Z,7E,23E,24aE)-(1S,3S)-24a,24b-Dihomo-9,10-seco-cholesta-5,7,10(19),23,24a-pentaene-1,3,25-triol]	0.03	
C[C@H](CC=CC#CC1(O)CCCC1)[C@H]1CC[C@H]2/C(=C/C=C3C[C@@H](O)C[C@H](O)C3)CCC[C@]12C [Example 13c, (7E,23E)- and (7E,23Z)-(1R,3R)-25-(1-hydroxy-cyclopentyl)-24a,24b-dihomo-19-nor-9,10-seco-cholesta-5,7,23-trien-24a-yne-1,3,25-diol]	0.01	
C[C@H](CC=CC#CC(O)(C(F)(F)F)C(F)(F)F)[C@H]1CC[C@H]2/C(=C/C=C3C[C@@H](O)C[C@H](O)C3)CCC[C@]12C [Example 13d, (7E,23E)- and (7E,23Z)-(1R,3R)-26,26,26,27,27,27-hexafluoro-24a,24b-dihomo-19-nor-9,10-seco-cholesta-5,7,23-trien-24a-yne-1,3,25-triol]	0.01	
C[C@H](CC=C/C=C/C1(O)CCCC1)[C@H]1CC[C@H]2/C(=C/C=C3C[C@@H](O)C[C@H](O)C3)CCC[C@]12C [Example 13f, (7E,23E,24aE)- and (7E,23Z,24aE)-(1R,3R)-25-(1-hydroxy-cyclopentyl)-24a,24b-dihomo-19-nor-9,10-seco-cholesta-5,7,23,24a-tetraen-24a-yne-1,3,25-diol]	0.01	

Continued by falling IC50 [1], values first:

IC50 [1] [µM]	SMILES	IC50 (Homo sapiens, THP-1, 48 h) [µM]
0.01	C=C1C(=CC=C2CCCC3(C)C2CCC3C(C)CC=CC=CC(C)(C)O)CC(O)CC1O [Example 1, (5Z,7E ,23E,24aE)-(1R,3S)-24a,24b-dihomo-9,10-seco-cholesta-5,7,10(19),23,24a-pentaene-1,3,25-triol]	
0.01	C[C@H](CC=CC#CC(C)(C)O)[C@H]1CC[C@H]2/C(=C/C=C3C[C@@H](O)C[C@H](O)C3)CCC[C@]12C [Example 13a, (7E,23E)- and (7E,23Z)-(1R,3R)-24a,24b-dihomo-19-nor-9,10-seco-cholesta-5,7,23-trien-24a-yne-1,3,25-triol]	
0.001	C=C1/C(=C\C=C2/CCC[C@]3(C)[C@@H]([C@H](C)C/C=C/C=C/C(C)(C)O)CCC[C@@H]23)C[C@@H](O)C[C@@H]1O [Example 4, (5Z,7E,23E,24aE)-(1S,3R)-17a,24a,24b-trihomo-9,10-seco-cholesta-5,7,10(19),23,24a-pentaene-1,3,25-triol]	
0.001	C=C1/C(=C\C=C2/CCC[C@]3(C)C([C@H](C)C/C=C/C=C/C(C)(C)O)=CCC[C@@H]23)C[C@@H](O)C[C@@H]1O [Example 8, (5Z,7E,23E,24aE)-(1S,3R)-17a,24a,24b-Trihomo-9,10-seco-cholesta-5,7,10(19),17,23,24a-hexaene-1,3,25-triol]	
0.001	CCC(O)(/C=C/C=CC[C@@H](C)[C@H]1CC[C@H]2/C(=C/C=C3C[C@@H](O)C[C@H](O)C3)CCC[C@]12C)CC [Example 13e, (7E,23E24aE)- and (7E,23Z,24aE)-(1R,3R)-24a,24b,26a,26b-tetrahomo-19-nor-9,10-seco-cholesta-5,7,23,24a-tetraen-24a-yne-1,3,25-triol]	
